What was measured:
[1] = Overall evaluation based on solubility and liquid property; format: physicochemical; settings: based on the evaluation results of solubility and liquid property
[2] = Liquid property (pH) of the solution obtained in the solubility evaluation; format: physicochemical
Experimental: A pH of the solution obtained in the evaluation of solubility was evaluated. Liquid property was evaluated according to the following evaluation standard.

Liquid property [2]: Neutral (pH of 6.0 to 8.5)
Compound: N[C@@H](CSSC[C@H](N)C(=O)O)C(=O)O [Comparative Example 1, L-cystine]
Overall evaluation [1]: E (the solution was still turbid even after 1 hour, and/or the pH was other than neutral)

From patent US20250002840A1, “MANUFACTURING METHOD OF MIXED POWDER, MIXED POWDER, POWDER, AND POWDER MEDIUM” (FUJIFILM Corporation, priority 2022, published 2025)
